{"source": "patent US10945992B1", "about": "“Dosage forms of rofecoxib and related methods” (Tremeau Pharmaceuticals, Inc., priority 2019, dated 2021)", "assay": "TRM-201-PK-102 single-dose four-period crossover pharmacokinetic study, fasted healthy subjects", "format": "in vivo, human", "details": "human, plasma, oral", "procedure": "A Single-Dose, Open-Label, Phase 1, Four-Period Crossover Pharmacokinetic Study of TRM-201 (Rofecoxib) 12.5 mg, 17.5 mg, 20 mg and 25 mg Administered to Healthy Subjects in a Fasting State, with Comparison to Historical Pharmacokinetic Parameters of Previously Marketed Rofecoxib (“TRM-201-PK-102” or “102 PK Study”)\nThis was a single-center, open-label four-period crossover PK study of TRM-201. The study included 24 subjects who received TRM-201 as a single dose of 12.5 mg, 17.5 mg, 20 mg and 25 mg to assess the PK of TRM-201 in healthy volunteers under fasted conditions. Subjects were randomized to one of four treatment sequences. The PK data from the current study along with the data from the TRM-201-PK-101 study (Example 4) was used to compare to historical pharmacokinetic parameters of previously marketed rofecoxib, all in a fasted state.\nIn each of the four dosing periods, subjects fasted overnight for at least 10 hours before study drug dosing. While fasting, subjects had nothing to eat and only water to drink. Water was permitted as desired, except for the period between 1 hour before and 1 hour after study drug dosing (excepting as permitted for dosing). After the 2-hour PK blood sample, subjects were allowed one 250-mL cup of clear apple juice. After the 4-hour PK blood sample, subjects were served a light lunch. Following the light lunch, subjects received standardized meals according to the clinic's standard procedures that were scheduled at consistent times and at least 15 minutes before or 15 minutes after PK sampling time points. Blood was withdrawn for PK analysis at predefined time points. For each dosing period the last time point was 120 hours after dosing with study drug (Day 6). After the 120 hour PK sample, the EOP procedures was completed, subjects remained in-clinic for the in-between dose period day (Days 7, 14, and 21) and began the next dosing period starting with an overnight fast for at least 10 hours on Day −1 of the subsequent dosing period. Pharmacokinetic and safety endpoints were evaluated.\nThe study drug, TRM-201, was an immediate-release tablet that contained 12.5 mg rofecoxib, 17.5 mg rofecoxib, 20 mg rofecoxib or 25 mg rofecoxib. The 7.25-mm diameter tablets were off-white, round, and uncoated with no markings. TRM-201 tablets were for oral administration.\nFor each sample, approximately 3 mL of blood were drawn. The samples were obtained by a straight stick or via an in-dwelling intravenous (IV) catheter in a forearm vein. Additional details for the collection, processing, storage, and shipping of PK samples were provided in the study manual.\nPharmacokinetic samples will be analyzed using a validated assay for rofecoxib in human plasma. Assay results and validation details will be provided in a separate bioanalytical report. The following PK parameters for rofecoxib will be calculated as primary endpoints using standard noncompartmental methods: AUC0-∞ and Cmax. Secondary endpoints include Tmax, and t1/2. Additional PK parameters (e.g., CL/F, and Vd/F) will also be calculated using standard noncompartmental methods.\nIndividual plasma concentrations for rofecoxib and PK sampling time deviation data will be presented in a data listing. Plasma concentration data will be summarized by time point using the following descriptive statistics: number of subjects, arithmetic mean, SD, coefficient of variation (CV), geometric mean, natural-log-scale SD, geometric CV, median, minimum, and maximum. Individual plasma concentration versus actual time profiles were presented on both linear and semilogarithmic scales. Additionally, arithmetic mean concentration versus scheduled time profiles were presented on linear scales and geometric means on semilogarithmic scales.\nThe PK parameters of rofecoxib were analyzed based on the actual sampling times. […]", "key": {"[1]": {"details": "12.5 mg, read-out: arithmetic mean plasma concentration"}, "[2]": {"details": "12.5 mg, read-out: geometric mean plasma concentration"}, "[3]": {"details": "17.5 mg, read-out: geometric mean plasma concentration"}}, "note": "Like-named read-outs stand apart in the source and are kept apart here.", "data": [{"smiles": "CS(=O)(=O)c1ccc(C2=C(c3ccccc3)C(=O)OC2)cc1", "note": "[TRM-201, 4-[4-(methylsulfonyl)phenyl]-3-phenyl-2(5H)-furanone]", "values": [{"measurement": "Cmax", "setting": "12.5 mg, 102 study, body weight 77.1-90 kg, read-out: arithmetic mean Cmax", "value": 127, "unit": "ng/mL"}, {"measurement": "AUC(0-inf)", "setting": "12.5 mg, 102 study, body weight 77.1-90 kg, read-out: geometric mean AUC0-∞", "value": 1690, "unit": "ng·h/mL"}, {"measurement": "Cmax", "setting": "12.5 mg, 102 study, body weight 77.1-90 kg, read-out: geometric mean Cmax", "value": 125, "unit": "ng/mL"}, {"measurement": "AUC(0-inf)", "setting": "12.5 mg, 102 study, non-Hispanic or non-Latino subjects, read-out: arithmetic mean AUC0-∞", "value": 1820, "unit": "ng·h/mL"}, {"measurement": "Cmax", "setting": "12.5 mg, 102 study, non-Hispanic or non-Latino subjects, read-out: arithmetic mean Cmax", "value": 146, "unit": "ng/mL"}, {"measurement": "AUC(0-inf)", "setting": "12.5 mg, 102 study, non-Hispanic or non-Latino subjects, read-out: geometric mean AUC0-∞", "value": 1680, "unit": "ng·h/mL"}, {"measurement": "Cmax", "setting": "12.5 mg, 102 study, non-Hispanic or non-Latino subjects, read-out: geometric mean Cmax", "value": 141, "unit": "ng/mL"}, {"measurement": "concentration at 15 minutes", "setting": "[1]", "value": 1.03, "unit": "ng/mL"}, {"measurement": "concentration at 15 minutes", "setting": "[2]", "value": 0.529, "unit": "ng/mL"}, {"measurement": "concentration at 45 minutes", "setting": "[1]", "value": 56.8, "unit": "ng/mL"}, {"measurement": "concentration at 45 minutes", "setting": "[2]", "value": 33.9, "unit": "ng/mL"}, {"measurement": "AUC(0-inf)", "setting": "17.5 mg, 102 study only, read-out: arithmetic mean AUC0-∞", "value": 3290, "unit": "ng·h/mL"}, {"measurement": "Cmax", "setting": "17.5 mg, 102 study only, read-out: arithmetic mean Cmax", "value": 236, "unit": "ng/mL"}, {"measurement": "AUC(0-inf)", "setting": "17.5 mg, 102 study only, read-out: geometric mean AUC0-∞", "value": 3110, "unit": "ng·h/mL"}, {"measurement": "Cmax", "setting": "17.5 mg, 102 study only, read-out: geometric mean Cmax", "value": 224, "unit": "ng/mL"}, {"measurement": "AUC(0-inf)", "setting": "17.5 mg, 102 study, 18-40 years, read-out: arithmetic mean AUC0-∞", "value": 2820, "unit": "ng·h/mL"}, {"measurement": "Cmax", "setting": "17.5 mg, 102 study, 18-40 years, read-out: arithmetic mean Cmax", "value": 237, "unit": "ng/mL"}, {"measurement": "AUC(0-inf)", "setting": "17.5 mg, 102 study, 18-40 years, read-out: geometric mean AUC0-∞", "value": 2750, "unit": "ng·h/mL"}, {"measurement": "Cmax", "setting": "17.5 mg, 102 study, 18-40 years, read-out: geometric mean Cmax", "value": 229, "unit": "ng/mL"}, {"measurement": "AUC(0-inf)", "setting": "17.5 mg, 102 study, 41-52 years, read-out: arithmetic mean AUC0-∞", "value": 3520, "unit": "ng·h/mL"}, {"measurement": "Cmax", "setting": "17.5 mg, 102 study, 41-52 years, read-out: arithmetic mean Cmax", "value": 232, "unit": "ng/mL"}, {"measurement": "AUC(0-inf)", "setting": "17.5 mg, 102 study, 41-52 years, read-out: geometric mean AUC0-∞", "value": 3160, "unit": "ng·h/mL"}, {"measurement": "Cmax", "setting": "17.5 mg, 102 study, 41-52 years, read-out: geometric mean Cmax", "value": 213, "unit": "ng/mL"}, {"measurement": "AUC(0-inf)", "setting": "17.5 mg, 102 study, 53-60 years, read-out: arithmetic mean AUC0-∞", "value": 3510, "unit": "ng·h/mL"}, {"measurement": "Cmax", "setting": "17.5 mg, 102 study, 53-60 years, read-out: arithmetic mean Cmax", "value": 239, "unit": "ng/mL"}, {"measurement": "AUC(0-inf)", "setting": "17.5 mg, 102 study, 53-60 years, read-out: geometric mean AUC0-∞", "value": 3470, "unit": "ng·h/mL"}, {"measurement": "Cmax", "setting": "17.5 mg, 102 study, 53-60 years, read-out: geometric mean Cmax", "value": 230, "unit": "ng/mL"}, {"measurement": "AUC(0-inf)", "setting": "17.5 mg, 102 study, Black or African-American subjects, read-out: arithmetic mean AUC0-∞", "value": 2840, "unit": "ng·h/mL"}, {"measurement": "Cmax", "setting": "17.5 mg, 102 study, Black or African-American subjects, read-out: arithmetic mean Cmax", "value": 217, "unit": "ng/mL"}, {"measurement": "AUC(0-inf)", "setting": "17.5 mg, 102 study, Black or African-American subjects, read-out: geometric mean AUC0-∞", "value": 2800, "unit": "ng·h/mL"}, {"measurement": "Cmax", "setting": "17.5 mg, 102 study, Black or African-American subjects, read-out: geometric mean Cmax", "value": 211, "unit": "ng/mL"}, {"measurement": "AUC(0-inf)", "setting": "17.5 mg, 102 study, Hispanic or Latino subjects, read-out: arithmetic mean AUC0-∞", "value": 3520, "unit": "ng·h/mL"}, {"measurement": "Cmax", "setting": "17.5 mg, 102 study, Hispanic or Latino subjects, read-out: arithmetic mean Cmax", "value": 258, "unit": "ng/mL"}, {"measurement": "AUC(0-inf)", "setting": "17.5 mg, 102 study, Hispanic or Latino subjects, read-out: geometric mean AUC0-∞", "value": 3330, "unit": "ng·h/mL"}, {"measurement": "Cmax", "setting": "17.5 mg, 102 study, Hispanic or Latino subjects, read-out: geometric mean Cmax", "value": 243, "unit": "ng/mL"}, {"measurement": "AUC(0-inf)", "setting": "17.5 mg, 102 study, White subjects, read-out: arithmetic mean AUC0-∞", "value": 3400, "unit": "ng·h/mL"}, {"measurement": "Cmax", "setting": "17.5 mg, 102 study, White subjects, read-out: arithmetic mean Cmax", "value": 241, "unit": "ng/mL"}, {"measurement": "AUC(0-inf)", "setting": "17.5 mg, 102 study, White subjects, read-out: geometric mean AUC0-∞", "value": 3200, "unit": "ng·h/mL"}, {"measurement": "Cmax", "setting": "17.5 mg, 102 study, White subjects, read-out: geometric mean Cmax", "value": 228, "unit": "ng/mL"}, {"measurement": "AUC(0-inf)", "setting": "17.5 mg, 102 study, body weight 47-70 kg, read-out: arithmetic mean AUC0-∞", "value": 3180, "unit": "ng·h/mL"}, {"measurement": "Cmax", "setting": "17.5 mg, 102 study, body weight 47-70 kg, read-out: arithmetic mean Cmax", "value": 261, "unit": "ng/mL"}, {"measurement": "AUC(0-inf)", "setting": "17.5 mg, 102 study, body weight 47-70 kg, read-out: geometric mean AUC0-∞", "value": 2930, "unit": "ng·h/mL"}, {"measurement": "Cmax", "setting": "17.5 mg, 102 study, body weight 47-70 kg, read-out: geometric mean Cmax", "value": 242, "unit": "ng/mL"}, {"measurement": "AUC(0-inf)", "setting": "17.5 mg, 102 study, body weight 70.1-77 kg, read-out: arithmetic mean AUC0-∞", "value": 3890, "unit": "ng·h/mL"}, {"measurement": "Cmax", "setting": "17.5 mg, 102 study, body weight 70.1-77 kg, read-out: arithmetic mean Cmax", "value": 254, "unit": "ng/mL"}, {"measurement": "AUC(0-inf)", "setting": "17.5 mg, 102 study, body weight 70.1-77 kg, read-out: geometric mean AUC0-∞", "value": 3730, "unit": "ng·h/mL"}, {"measurement": "Cmax", "setting": "17.5 mg, 102 study, body weight 70.1-77 kg, read-out: geometric mean Cmax", "value": 246, "unit": "ng/mL"}, {"measurement": "AUC(0-inf)", "setting": "17.5 mg, 102 study, body weight 77.1-90 kg, read-out: arithmetic mean AUC0-∞", "value": 2910, "unit": "ng·h/mL"}, {"measurement": "Cmax", "setting": "17.5 mg, 102 study, body weight 77.1-90 kg, read-out: arithmetic mean Cmax", "value": 200, "unit": "ng/mL"}, {"measurement": "AUC(0-inf)", "setting": "17.5 mg, 102 study, body weight 77.1-90 kg, read-out: geometric mean AUC0-∞", "value": 2850, "unit": "ng·h/mL"}, {"measurement": "Cmax", "setting": "17.5 mg, 102 study, body weight 77.1-90 kg, read-out: geometric mean Cmax", "value": 194, "unit": "ng/mL"}, {"measurement": "AUC(0-inf)", "setting": "17.5 mg, 102 study, non-Hispanic or non-Latino subjects, read-out: arithmetic mean AUC0-∞", "value": 3050, "unit": "ng·h/mL"}, {"measurement": "Cmax", "setting": "17.5 mg, 102 study, non-Hispanic or non-Latino subjects, read-out: arithmetic mean Cmax", "value": 214, "unit": "ng/mL"}, {"measurement": "AUC(0-inf)", "setting": "17.5 mg, 102 study, non-Hispanic or non-Latino subjects, read-out: geometric mean AUC0-∞", "value": 2910, "unit": "ng·h/mL"}, {"measurement": "Cmax", "setting": "17.5 mg, 102 study, non-Hispanic or non-Latino subjects, read-out: geometric mean Cmax", "value": 207, "unit": "ng/mL"}, {"measurement": "concentration at 15 minutes", "setting": "[3]", "value": 0.669, "unit": "ng/mL"}, {"measurement": "concentration at 45 minutes", "setting": "[3]", "value": 51.6, "unit": "ng/mL"}]}]}
